Consider ten substances from patent US11390660B2, “Uterine cancer treatments” (Immatics Biotechnologies GmbH, priority 2016, dated 2022).

One test relates to CD8+ T cells. Briefly: In vitro T-cell priming assay with aAPCs loaded with peptide/MHC complexes and anti-CD28 antibody, pMHC multimer readout. The conditions noted are these: in vitro immunogenicity, HLA-A*02 restricted peptides, positive wells among evaluable (Table 10B). The test is classed as cell-based, human. The text has this: In order to obtain information regarding the immunogenicity of the TUMAPs of the present invention, the inventors performed investigations using an in vitro T-cell priming assay based on repeated stimulations of CD8+ T cells with artificial antigen presenting cells (aAPCs) loaded with peptide/MHC complexes and anti-CD28 antibody.
In order to perform in vitro stimulations by artificial antigen presenting cells loaded with peptide-MHC complex (pMHC) and anti-CD28 antibody, the inventors first isolated CD8+ T cells from fresh HLA-A*02 leukapheresis products via positive selection using CD8 microbeads (Miltenyi Biotec, Bergisch-Gladbach, Germany) of healthy donors obtained from the University clinics Mannheim, Germany, after informed consent.
PBMCs and isolated CD8+ lymphocytes were incubated in T-cell medium (TCM) until use consisting of RPMI-Glutamax (Invitrogen, Karlsruhe, Germany) supplemented with 10% heat inactivated human AB serum (PAN-Biotech, Aidenbach, Germany), 100 U/ml Penicillin/100 μg/ml Streptomycin (Cambrex, Cologne, Germany), 1 mM sodium pyruvate (CC Pro, Oberdorla, Germany), 20 μg/ml Gentamycin (Cambrex). 2.5 ng/ml IL-7 (PromoCell, Heidelberg, Germany) and 10 U/ml IL-2 (Novartis Pharma, Nürnberg, Germany) were also added to the TCM at this step.
Generation of pMHC/anti-CD28 coated beads, T-cell stimulations and readout was performed in a highly defined in vitro system using four different pMHC molecules per stimulation condition and 8 different pMHC molecules per readout condition.
The purified co-stimulatory mouse IgG2a anti human CD28 Ab 9.3 (Jung et al., 1987) was chemically biotinylated using Sulfo-N-hydroxysuccinimidobiotin as recommended by the manufacturer (Perbio, Bonn, Germany). Beads used were 5.6 μm diameter streptavidin coated polystyrene particles (Bangs Laboratories, Illinois, USA).
800.000 beads/200 μI were coated in 96-well plates in the presence of 4×12.5 ng different biotin-pMHC, washed and 600 ng biotin anti-CD28 were added subsequently in a volume of 200 μI. Stimulations were initiated in 96-well plates by co-incubating 1×10^6 CD8+ T cells with 2×10^5 washed coated beads in 200 μI TCM supplemented with 5 ng/ml IL-12 (PromoCell) for 3 days at 37° C. Half of the medium was then exchanged by fresh TCM supplemented with 80 U/ml IL-2 and incubating was continued for 4 days at 37° C. This stimulation cycle was performed for a total of three times. For the pMHC multimer readout using 8 different pMHC molecules per condition, a two-dimensional combinatorial coding approach was used as previously described (Andersen et al., 2012) with minor modifications encompassing coupling to 5 different fluorochromes. Finally, multimeric analyses were performed by staining the cells with Live/dead near IR dye (Invitrogen, Karlsruhe, Germany), CD8-FITC antibody clone SK1 (BD, Heidelberg, Germany) and fluorescent pMHC multimers. For analysis, a BD LSRII SORP cytometer equipped with appropriate lasers and filters was used. Peptide specific cells were calculated as percentage of total CD8+ cells. Evaluation of multimeric analysis was done using the FlowJo software (Tree Star, Oregon, USA). In vitro priming of specific multimer+ CD8+ lymphocytes was detected by comparing to negative control stimulations.

In a further test the target is HLA-A*02:01 (Homo sapiens, UniProt P04439, D140Y/D185E/D98H/E176V/E277Q/G131W/G231S/I119V/I121R/I166T/I218V/L300P/L318F/N151K/N90K/P208A/P217A/Q86G/Q94H/R138H/R169H/T345S). Briefly: MHC binding assay: UV-ligand exchange with β2m ELISA. The conditions noted are these: peptide exchange yield, binding to HLA-A*02:01. The text has this: Candidate peptides for T cell based therapies according to the present invention were further tested for their MHC binding capacity (affinity). The individual peptide-MHC complexes were produced by UV-ligand exchange, where a UV-sensitive peptide is cleaved upon UV-irradiation, and exchanged with the peptide of interest as analyzed. Only peptide candidates that can effectively bind and stabilize the peptide-receptive MHC molecules prevent dissociation of the MHC complexes. To determine the yield of the exchange reaction, an ELISA was performed based on the detection of the light chain (β2m) of stabilized MHC complexes. The assay was performed as generally described in Rodenko et al. (Rodenko et al., 2006).
96 well MAXISorp plates (NUNC) were coated over night with 2 ug/ml streptavidin in PBS at room temperature, washed 4× and blocked for 1 h at 37° C. in 2% BSA containing blocking buffer. Refolded HLA-A*02:01/MLA-001 monomers served as standards, covering the range of 15-500 ng/ml. Peptide-MHC monomers of the UV-exchange reaction were diluted 100 fold in blocking buffer. Samples were incubated for 1 h at 37° C., washed four times, incubated with 2 ug/ml HRP conjugated anti-β2m for 1 h at 37° C., washed again and detected with TMB solution that is stopped with […]. Absorption was measured at 450 nm. Candidate peptides that show a high exchange yield (preferably higher than 50%, most preferred higher than 75%) are generally preferred for a generation and production of antibodies or fragments thereof, and/or T cell receptors or fragments thereof, as they show sufficient avidity to the MHC molecules and prevent dissociation of the MHC complexes.

Take “1 (KLLDNLHDL; listed as Homo sapiens) [compound 1]”: the “Wells positive [%]” value in the test with CD8+ T cells is given as “+ (<20% = +)”. The Peptide exchange entry in the test with HLA-A*02:01 is recorded as “++++ (> 75% = ++++)”.

In the case of “2 (VLLDIFTGV; listed as Homo sapiens) [compound 2]”, the “Wells positive [%]” value in the test on CD8+ T cells is listed as “+++ (50%-69% = +++)”. Moreover, the Peptide exchange result in the test with HLA-A*02:01 is “++++ (> 75% = ++++)”.

Regarding “3 (GLDGATYTV; listed as Homo sapiens) [compound 3]”, the “Wells positive [%]” value in the test on CD8+ T cells was “++++ (> = 70% = ++++)”. In the test with HLA-A*02:01, the Peptide exchange entry was “+++ (>50 = +++)”.

Turning to “6 (SLLSELVEA; listed as Homo sapiens) [compound 6]”, the “Wells positive [%]” value in the test with CD8+ T cells was “+ (<20% = +)”. Besides, the Peptide exchange entry with HLA-A*02:01 is “++++ (> 75% = ++++)”.

On to “7 (SILSLLIKL; listed as Homo sapiens) [compound 7]”, for which the “Wells positive [%]” value in the test with CD8+ T cells is reported as “++ (20%-49% = ++)”. Further, in the test with HLA-A*02:01, the Peptide exchange result is reported as “++ (>20% = ++)”.

Take “9 (SLYPGTETM; listed as Homo sapiens) [compound 9]”: in the test with CD8+ T cells, the “Wells positive [%]” value is “+ (<20% = +)”. The Peptide exchange result with HLA-A*02:01 was “+++ (>50 = +++)”.

In the case of “10 (AILDVVVNL; listed as Homo sapiens) [compound 10]”, the “Wells positive [%]” value in the test on CD8+ T cells is given as “+ (<20% = +)”. In the test with HLA-A*02:01, the Peptide exchange result was “++++ (> 75% = ++++)”.

On to “14 (FLVDSLISA; listed as Homo sapiens) [compound 14]”, for which the “Wells positive [%]” value in the test with CD8+ T cells is recorded as “++ (20%-49% = ++)”. The Peptide exchange result with HLA-A*02:01 is “++++ (> 75% = ++++)”.

Regarding “20 (ALLGFVTDL; listed as Homo sapiens) [compound 20]”, the “Wells positive [%]” value in the test on CD8+ T cells is recorded as “++ (20%-49% = ++)”. Besides, the Peptide exchange entry in the test with HLA-A*02:01 is listed as “++++ (> 75% = ++++)”.

As for “23 (GLGPNLVGV; listed as Homo sapiens) [compound 23]”, in the test with CD8+ T cells, the “Wells positive [%]” value is “++++ (> = 70% = ++++)”. Also, in the test with HLA-A*02:01, the Peptide exchange result is “++++ (> 75% = ++++)”.
